System: Nippostrongylus
Experiment: Nippostrongylus in vitro (acetylcholine esterase determination)
Parameters: species or system Nippostrongylus brasiliensis
Details: read-out: inhibition of the enzyme (full activity)
Experimental: Nippostrongylus are isolated from the small intestine of rats and washed with 0.9% of NaCl supplemented with 29 μg/ml sisomycin and 2 μg/ml of clotrimazole. The actual incubation of in each case 5 male and female Nippostrongylus is carried out in 1.0 ml of medium used for determining the activity of acetylcholine esterase. Enzyme determination is by the method of Rapson et al., 1987 (E. B. Rapson, D. C. Jenkins, A. S. Chilwan), Improved detection of anthelmintic activity in vitro screen utilizing adult Nippostrongylus brasiliensis. Parasitol. Res. 1987 73, 190 to 191.
The following key is used for the assessment: 3=full activity, 100% inhibition of the enzyme; 2=good activity, more than 75% inhibition; 1=poor activity, less than 50% inhibition.

SMILES: CCOC(=O)c1c(C)oc(=O)c(-c2c(C)cc(C)cc2C)c1O [Example 1]
- inhibition at 100 ppm: 100%

Source: patent US5393729A, “3-aryl-pyrone derivatives” (Bayer Aktiengesellschaft, priority 1992, dated 1995)
